Measurements published in PMC8343220, “The selectivity of α‐adrenoceptor agonists for the human α1A, α1B, and α1D‐adrenoceptors” (Pharmacology Research & Perspectives, 2021).
Read-outs that look alike come from different tables or passages of the source. One block for each compound: values may come before it.

Tests used:
[1] = system: parental CHO cell line without any transfected receptors; experiment: Forskolin‐stimulated cAMP accumulation, parent CHO cells without transfected receptors; type: cell-based, Chinese hamster
[2] = molecular target: T1, human α1D‐adrenoceptor (full length) (Homo sapiens, UniProt P25100); experiment: ^3H‐prazosin whole‐cell radioligand binding, CHO‐α1D cells
T1 construct: human α1D‐adrenoceptor (full length) were used; expressed in transfected cells; host or cells: CHO-K1
T1 sequence (P25100 1-572): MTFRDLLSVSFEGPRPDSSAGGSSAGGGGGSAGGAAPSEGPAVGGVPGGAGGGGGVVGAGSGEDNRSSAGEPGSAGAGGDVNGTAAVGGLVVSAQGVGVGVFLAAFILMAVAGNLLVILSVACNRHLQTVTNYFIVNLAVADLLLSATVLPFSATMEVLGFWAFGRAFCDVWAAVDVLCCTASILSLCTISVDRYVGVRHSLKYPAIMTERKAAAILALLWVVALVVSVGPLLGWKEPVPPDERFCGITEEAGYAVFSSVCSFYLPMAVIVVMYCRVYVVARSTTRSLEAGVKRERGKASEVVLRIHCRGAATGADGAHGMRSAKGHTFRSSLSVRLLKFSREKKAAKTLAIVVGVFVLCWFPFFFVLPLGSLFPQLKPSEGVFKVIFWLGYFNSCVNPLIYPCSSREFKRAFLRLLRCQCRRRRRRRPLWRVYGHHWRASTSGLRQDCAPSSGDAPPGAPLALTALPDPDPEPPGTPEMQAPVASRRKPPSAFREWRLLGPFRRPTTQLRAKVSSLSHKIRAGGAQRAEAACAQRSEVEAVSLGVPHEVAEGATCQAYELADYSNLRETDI

[3] = molecular target: T1, human α1D‐adrenoceptor (full length); experiment: Intracellular free calcium mobilization, CHO‐α1D cells; type: cell-based
[4] = molecular target: T2, human α1B‐adrenoceptor (Homo sapiens, UniProt P35368); experiment: ERK1/2‐phosphorylation (Surefire Alphascreen), CHO‐α1B cells; type: cell-based; conditions: for ERK1/2‐phosphorylation % PDBu: CHO‐α1B cells, maximal response as % PDBu response, for bi‐phasic responses the initial stimulatory part
T2 construct: expressed in transfected cells; host or cells: CHO-K1
T2 sequence (P35368 1-520): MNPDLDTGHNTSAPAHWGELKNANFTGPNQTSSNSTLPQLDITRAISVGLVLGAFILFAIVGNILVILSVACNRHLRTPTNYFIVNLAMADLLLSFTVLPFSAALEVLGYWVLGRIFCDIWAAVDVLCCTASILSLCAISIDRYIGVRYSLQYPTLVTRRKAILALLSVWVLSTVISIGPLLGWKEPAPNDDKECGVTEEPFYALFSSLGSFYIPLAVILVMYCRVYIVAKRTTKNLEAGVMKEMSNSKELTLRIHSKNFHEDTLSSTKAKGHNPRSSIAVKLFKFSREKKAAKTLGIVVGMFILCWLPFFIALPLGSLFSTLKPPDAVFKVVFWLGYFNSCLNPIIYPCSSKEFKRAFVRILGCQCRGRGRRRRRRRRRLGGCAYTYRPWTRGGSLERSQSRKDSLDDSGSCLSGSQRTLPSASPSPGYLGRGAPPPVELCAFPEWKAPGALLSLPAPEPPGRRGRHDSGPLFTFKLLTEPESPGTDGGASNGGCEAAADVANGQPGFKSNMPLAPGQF

[5] = molecular target: T1, human α1D‐adrenoceptor (full length); experiment: ERK1/2‐phosphorylation (Surefire Alphascreen), CHO‐α1D cells; type: cell-based; conditions: for ERK1/2‐phosphorylation % PDBu: CHO‐α1D cells, maximal response as % of PDBu
[6] = system: parental CHO cell line without any transfected receptors; experiment: ERK1/2‐phosphorylation, parent CHO cells without transfected receptors; type: cell-based, Chinese hamster
[7] = molecular target: T3, human α1A‐adrenoceptor (Homo sapiens, UniProt P35348); experiment: ^3H‐cAMP accumulation, CHO‐α1A cells; type: cell-based; conditions: CHO‐α1A cells; % of 10 µM forskolin response
T3 construct: expressed in transfected cells; host or cells: CHO-K1
T3 sequence (P35348 1-466): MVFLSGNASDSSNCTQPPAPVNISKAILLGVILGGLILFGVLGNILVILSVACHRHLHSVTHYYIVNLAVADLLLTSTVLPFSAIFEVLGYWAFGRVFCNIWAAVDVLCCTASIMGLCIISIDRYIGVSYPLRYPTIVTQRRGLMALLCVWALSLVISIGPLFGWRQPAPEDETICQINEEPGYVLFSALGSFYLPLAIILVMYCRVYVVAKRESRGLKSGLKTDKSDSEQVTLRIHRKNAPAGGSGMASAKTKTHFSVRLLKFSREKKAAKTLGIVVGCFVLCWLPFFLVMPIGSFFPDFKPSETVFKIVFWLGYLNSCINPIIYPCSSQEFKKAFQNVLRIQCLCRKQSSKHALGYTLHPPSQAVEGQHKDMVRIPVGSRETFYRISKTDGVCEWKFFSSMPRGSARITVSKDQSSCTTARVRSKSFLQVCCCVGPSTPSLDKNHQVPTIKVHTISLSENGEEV

[8] = molecular target: T2, human α1B‐adrenoceptor; experiment: Intracellular free calcium mobilization, CHO‐α1B cells; type: cell-based; conditions: CHO‐α1B cells
[9] = molecular target: T3, human α1A‐adrenoceptor; experiment: ^3H‐prazosin whole‐cell radioligand binding, CHO‐α1A cells
[10] = molecular target: T3, human α1A‐adrenoceptor; experiment: Intracellular free calcium mobilization, CHO‐α1A cells; type: cell-based
[11] = molecular target: T3, human α1A‐adrenoceptor; experiment: ERK1/2‐phosphorylation (Surefire Alphascreen), CHO‐α1A cells; type: cell-based
[12] = molecular target: T2, human α1B‐adrenoceptor; experiment: ^3H‐prazosin whole‐cell radioligand binding, CHO‐α1B cells; conditions: CHO‐α1B cells
[13] = molecular target: T3, human α1A‐adrenoceptor; experiment: ^3H‐cAMP accumulation in the presence of 10 μM forskolin, CHO‐α1A cells; type: cell-based; conditions: CHO‐α1A cells; fold increase of the forskolin response
[14] = CHO cells without transfected receptors, in presence of forskolin

Compound: COc1ccc(CC(C)NCC(O)c2ccc(O)c(NC=O)c2)cc1 (stereo not drawn) [Formoterol]
cAMP accumulation (in presence of forskolin) Log EC50 [1]: No response | Kd ([2]; 3H‐prazosin binding Log KD): 7.08 µM | Kd ([2]; Log KD α1D, ^3H‐prazosin whole cell binding): 7.08 µM | Intracellular calcium release Log EC50 [3]: No response

ERK1/2‐phosphorylation % PDBu [4]: 77.8 ± 8.5% | ERK1/2‐phosphorylation % PDBu [5]: 8.5 ± 1.7% | cAMP accumulation % forskolin [7]: 16.2 ± 3.0% | Intracellular calcium release % ionomycin ([8]; maximal response as % of 10 µM ionomycin response): 53.9 ± 3.3% | Intracellular calcium release % Ionomycin at 100 µM ([3]; CHO‐α1D cells, response at 100 µM ligand (no EC50 given)): 3.6 ± 1.2%
Compound: CC(C)NCC(O)c1ccc(O)c(O)c1 (stereo not drawn) [Isoprenaline]
cAMP accumulation (in presence of forskolin) Log EC50 [1, 14]: No response | Emax at 100 µM ([6]; Cricetulus griseus, CHO, read-out: ERK1/2-phosphorylation % PDBu at 100μM): 5.1 ± 4.6%

Compound: C=CCN1CCc2nc(N)sc2CC1 [BHT920]
Affinity selectivity ratio α1A vs α1B [9]: 9.3 fold | Affinity selectivity ratio α1A vs α1D [9]: 1.6 fold | Log KD α1A, ^3H‐prazosin whole cell binding [9]: −4.70 ± 0.04 | ERK1/2‐phosphorylation Log EC50 [4]: −5.31 ± 0.04 | ERK1/2‐phosphorylation % PDBu [4]: 12.2 ± 3.6% | ERK1/2‐phosphorylation Log EC50 [5]: No response | ERK1/2‐phosphorylation % PDBu [5]: No response | Intracellular calcium release % ionomycin [10]: 39.7 ± 3.3% | Intracellular calcium release Log EC50 [10]: −5.68 ± 0.09 | Log efficacy ratio KD /EC50 [10]: 0.98 | ERK1/2-phosphorylation % PDBu at 100μM ([6]; CHO cells without transfected receptors, response at 100μM only, EC50 not obtainable, % of PDBu (10μM)): 3.8 ± 1.8% | ERK1/2‐phosphorylation % PDBu [11]: 61.4 ± 5.5% | ERK1/2‐phosphorylation Log EC50 [11]: −5.14 ± 0.05 | Affinity selectivity ratio α1B vs α1D [2]: 5.8 fold | 3H‐prazosin binding Log KD ([2]; CHO‐α1D cells, whole‐cell binding (from Table 1), log values given negative): −4.49 | Log KD α1D, ^3H‐prazosin whole cell binding ([2]; CHO‐α1D cells, given as log KD (negative), mean ± SEM, 'early plateau' = specific binding not fully inhibited): −4.49 ± 0.07 | Log KD, ^3H‐prazosin binding ([12]; whole‐cell binding (from Table 1), given as log KD (negative numbers)): −3.73 | Log KD α1B, ^3H‐prazosin whole cell binding ([12]; given as log KD (negative), mean ± SEM): −3.73 ± 0.04 | Intracellular calcium release % Ionomycin at 100 µM ([8]; response at 100 µM ligand (no EC50 given), % of ionomycin response): 16.3 ± 4.5% | Intracellular calcium release Log EC50 ([3]; CHO‐α1D cells, log values given negative): No response | Intracellular calcium release % ionomycin ([3]; CHO‐α1D cells, maximal response as % of 10 µM ionomycin): No response

Compound: Bromocryptine
Intracellular calcium release % ionomycin [10]: 20.0 ± 3.0% | Log efficacy ratio KD /EC50 [10]: −1.42 | ERK1/2‐phosphorylation % PDBu [11]: 61.2 ± 10.3% | cAMP accumulation % forskolin [7]: No response | cAMP accumulation (in presence of forskolin) Fold increase [13]: No response

Compound: CNC[C@H](O)c1cccc(O)c1 [R-phenylephrine]
cAMP accumulation (in presence of forskolin) Log EC50 [1, 14]: No response | ERK1/2-phosphorylation % PDBu ([6]; CHO cells without transfected receptors, maximal response as % of PDBu (10μM) response, mean ± s.e.m.): No response
